In ChEMBL document CHEMBL1137339, “Improved therapeutic efficacy of doxorubicin through conjugation with a novel peptide drug delivery technology (Vectocell)” (J Med Chem, 2006):
Starred links: 1 amine or outer side, 2 acyl side, 3 side chain; linkers in the order of their positions; H or OH if unused. Non-standard residues stand in square brackets, D forms with d. Residues, ends and D or L forms follow the SMILES beside them. ξ: configuration not given here. *: point of attachment. X1 = COc1cccc2c1C(=O)c1c(O)c3c(c(O)c1C2=O)C[C@@](O)(C(=O)COC(=O)CCCN1C(=O)CC(*)C1=O)C[C@@H]3O[C@H]1C[C@H](N)[C@H](O)[C@H](C)O1; X4 = COc1cccc2c1C(=O)c1c(O)c3c(c(O)c1C2=O)C[C@@](O)(C(=O)CO)C[C@@H]3O[C@H]1C[C@H](NC(=O)CCCN2C(=O)CC(*)C2=O)[C@H](O)[C@H](C)O1; X2 = COc1cccc2c1C(=O)c1c(O)c3c(c(O)c1C2=O)C[C@@](O)(C(=O)C*)CC3O[C@H]1C[C@H](N)[C@H](O)[C@H](C)O1; X3 = COc1cccc2c1Cc1cc3c(cc1C2)C[C@@](O)(C(=O)CSCN*)C[C@@H]3O[C@H]1C[C@H](N)[C@H](O)[C@H](C)O1; CO = O=C([*:1])[*:2]; ξC = NC(CS)C(=O)O

Legend:
[1] = test system: HCT-116; test: Cytotoxicity against HCT116 cell line xenografted in NMRI nu/nu mouse at 15 umol/kg relative to control; type: functional, Homo sapiens
[2] = test system: NCI/ADR-RES; test: Cytotoxicity against doxorubicin-resistant MCF7/Adr cell line by WST1 assay; type: functional, cell-based; conditions: Homo sapiens
[3] = test system: MCF7; test: Cytotoxicity against doxorubicin-sensitive MCF7/6 cell line by WST1 assay; type: functional, cell-based; conditions: Homo sapiens
[4] = test system: HCT-116; test: Cytotoxicity against doxorubicin-sensitive HCT116 cell line by WST1 assay; type: functional, cell-based; conditions: Homo sapiens
[5] = test system: HCT-116; test: Cytotoxicity against HCT116 cell line xenografted in NMRI nu/nu mouse at 10 umol/kg relative to control; type: functional, Homo sapiens
[6] = test system: MES-SA/Dx5; test: Cytotoxicity against doxorubicin-resistant MES-SA/dx5 cell line in presence of verapamil by WST1 assay; type: functional, cell-based; conditions: Homo sapiens
[7] = test system: NCI/ADR-RES; test: Cytotoxicity against doxorubicin-resistant MCF7/Adr cell line in presence of verapamil by WST1 assay; type: functional, cell-based; conditions: Homo sapiens
[8] = test system: HCT-15; test: Cytotoxicity against HCT15 cell line by WST1 assay; type: functional, cell-based; conditions: Homo sapiens
[9] = test system: HCT-15; test: Cytotoxicity against doxorubicin-resistant HCT15 cell line in presence of verapamil by WST1 assay; type: functional, cell-based; conditions: Homo sapiens
[10] = test system: HCT-116; test: Cytotoxicity against HCT116 cell line xenografted in NMRI nu/nu mouse at 6.5 umol/kg relative to control; type: functional, Homo sapiens
[11] = test system: MES-SA/Dx5; test: Cytotoxicity against MES-SA/dx5 cell line by WST1 assay; type: functional, cell-based; conditions: Homo sapiens
[12] = test system: HCT-116; test: Cytotoxicity against doxorubicin-sensitive HCT116 cell line in presence of verapamil by WST1 assay; type: functional, cell-based; conditions: Homo sapiens
[13] = test system: MDA-MB-231; test: Cytotoxicity against MDA-MB-231 cell line xenografted in NMRI nu/nu mouse at 8 umol/kg relative to control; type: functional, Homo sapiens
[14] = test system: MDA-MB-231; test: Cytotoxicity against MDA-MB-231 cell line xenografted in NMRI nu/nu mouse at 6 umol/kg relative to control; type: functional, Homo sapiens
[15] = test system: MDA-MB-231; test: Cytotoxicity against MDA-MB-231 cell line xenografted in NMRI nu/nu mouse at 10 umol/kg relative to control; type: functional, Homo sapiens

Molecule	Activity [1]	IC50 [2]	IC50 [3]	IC50 [4]	further results
COc1cccc2c1C(=O)c1c(O)c3c(c(O)c1C2=O)C[C@@](O)(C(=O)CO)C[C@@H]3O[C@H]1C[C@H](NC(=O)CCCN2C(=O)CC(SC[C@H](N)C(=O)N[C@H](C(=O)N[C@@H](CCCCN)C(=O)N[C@@H](CCCN=C(N)N)C(=O)NCC(=O)N[C@@H](CC(C)C)C(=O)N[C@@H](CCCCN)C(=O)N[C@@H](CC(C)C)C(=O)N[C@@H](CCCN=C(N)N)C(=O)N[C@@H](Cc3c[nH]cn3)C(=O)N[C@H](C(=O)N[C@@H](CCCN=C(N)N)C(=O)N3CCC[C@H]3C(=O)N[C@@H](CCCN=C(N)N)C(=O)N[C@H](C(=O)N[C@H](C(=O)N[C@@H](CCCN=C(N)N)C(=O)N[C@@H](CCSC)C(=O)N[C@@H](CC(=O)O)C(=O)N[C@H](C(=O)O)C(C)C)[C@@H](C)O)C(C)C)C(C)C)C(C)C)C2=O)[C@H](O)[C@H](C)O1.O=C(O)C(F)(F)F (stereo partly specified) (H-C(X4)VKRGLKLRHVRPRVTRMDV-OH)	79.7%	–	–	–	–
COc1cccc2c1Cc1cc3c(cc1C2)C[C@@](O)(C(=O)CSCNC(=O)NCC(=O)N[C@@H](CCCCN)C(=O)N[C@@H](CCCN=C(N)N)C(=O)N[C@@H](CCCCN)C(=O)N[C@@H](CCCCN)C(=O)N[C@@H](CCCCN)C(=O)NCC(=O)N[C@@H](CCCCN)C(=O)N[C@@H](CC(C)C)C(=O)NCC(=O)N[C@@H](CCCCN)C(=O)N[C@@H](CCCCN)C(=O)N[C@@H](CCCN=C(N)N)C(=O)N1CCC[C@H]1C(=O)N[C@@H](CCCN=C(N)N)C(=O)N[C@@H](CO)C(=O)N[C@@H](CCCN=C(N)N)C(=O)N[C@@H](CS)C(=O)O)C[C@@H]3O[C@H]1C[C@H](N)[C@H](O)[C@H](C)O1.O=C(O)C(F)(F)F ({X3-CO}-GKRKKKGKLGKKRPRSRC-OH)	–	862 µM	17 µM	30 µM	Activity [5]: 86.2%
COc1cccc2c1C(=O)c1c(O)c3c(c(O)c1C2=O)C[C@@](O)(C(=O)CO)C[C@@H]3O[C@H]1C[C@H](N)[C@H](O)[C@H](C)O1.O=C(O)C(F)(F)F [DOXORUBICIN TRIFLUOROACETATE]	–	> 1000 µM	–	3 µM	IC50 [6]: 21 µM; IC50 [7]: 30 µM; IC50 [8]: 283 µM; IC50 [9]: 20 µM; Activity [10]: 49.6%; IC50 [11]: 600 µM; IC50 [12]: 2 µM
COc1cccc2c1C(=O)c1c(O)c3c(c(O)c1C2=O)C[C@@](O)(C(=O)CO)C[C@@H]3O[C@H]1C[C@H](NC(=O)CCCN2C(=O)CC(SCC(N)C(=O)N[C@@H](CO)C(=O)N[C@@H](CCCN=C(N)N)C(=O)N[C@@H](CCCN=C(N)N)C(=O)N[C@@H](C)C(=O)N[C@@H](CCCN=C(N)N)C(=O)N[C@@H](CCCN=C(N)N)C(=O)N[C@@H](CO)C(=O)N3CCC[C@H]3C(=O)N[C@@H](CCCN=C(N)N)C(=O)N[C@@H](Cc3c[nH]cn3)C(=O)N[C@@H](CC(C)C)C(=O)NCC(=O)N[C@@H](CO)C(=O)NCC(=O)N[C@@H](CS)C(=O)O)C2=O)[C@H](O)[C@H](C)O1 (stereo partly specified) (H-[ξC](X4)SRRARRSPRHLGSGC-OH)	–	625 µM	114 µM	200 µM	–
COc1cccc2c1C(=O)c1c(O)c3c(c(O)c1C2=O)C[C@@](O)(C(=O)CSCC(N)C(=O)N[C@@H](CO)C(=O)N[C@@H](CCCN=C(N)N)C(=O)N[C@@H](CCCN=C(N)N)C(=O)N[C@@H](C)C(=O)N[C@@H](CCCN=C(N)N)C(=O)N[C@@H](CCCN=C(N)N)C(=O)N[C@@H](CO)C(=O)N1CCC[C@H]1C(=O)N[C@@H](CCCN=C(N)N)C(=O)N[C@@H](Cc1c[nH]cn1)C(=O)N[C@@H](CC(C)C)C(=O)NCC(=O)N[C@@H](CO)C(=O)NCC(=O)N[C@@H](CS)C(=O)O)CC3O[C@H]1C[C@H](N)[C@H](O)[C@H](C)O1.O=C(O)C(F)(F)F (stereo partly specified) (H-[ξC](X2)SRRARRSPRHLGSGC-OH)	–	121 µM	37 µM	153 µM	Activity [5]: 55.8%
COc1cccc2c1C(=O)c1c(O)c3c(c(O)c1C2=O)C[C@@](O)(C(=O)COC(=O)CCCN1C(=O)CC(SC[C@H](N)C(=O)N[C@H](C(=O)N[C@@H](CCCCN)C(=O)N[C@@H](CCCN=C(N)N)C(=O)NCC(=O)N[C@@H](CC(C)C)C(=O)N[C@@H](CCCCN)C(=O)N[C@@H](CC(C)C)C(=O)N[C@@H](CCCN=C(N)N)C(=O)N[C@@H](Cc2c[nH]cn2)C(=O)N[C@H](C(=O)N[C@@H](CCCN=C(N)N)C(=O)N2CCC[C@H]2C(=O)N[C@@H](CCCN=C(N)N)C(=O)N[C@H](C(=O)N[C@H](C(=O)N[C@@H](CCCN=C(N)N)C(=O)N[C@@H](CCSC)C(=O)N[C@@H](CC(=O)O)C(=O)N[C@H](C(=O)O)C(C)C)[C@@H](C)O)C(C)C)C(C)C)C(C)C)C1=O)C[C@@H]3O[C@H]1C[C@H](N)[C@H](O)[C@H](C)O1 (stereo partly specified) (H-C(X1)VKRGLKLRHVRPRVTRMDV-OH)	–	133 µM	29 µM	6 µM	IC50 [6]: 22 µM; IC50 [7]: 52 µM; IC50 [8]: 50 µM; IC50 [9]: 11 µM; IC50 [11]: 81 µM; IC50 [12]: 4 µM
COc1cccc2c1C(=O)c1c(O)c3c(c(O)c1C2=O)C[C@@](O)(C(=O)CO)C[C@@H]3O[C@H]1C[C@H](NC(=O)CCCN2C(=O)CC(SC[C@H](N)C(=O)N[C@H](C(=O)N[C@@H](CCCCN)C(=O)N[C@@H](CCCN=C(N)N)C(=O)NCC(=O)N[C@@H](CC(C)C)C(=O)N[C@@H](CCCCN)C(=O)N[C@@H](CC(C)C)C(=O)N[C@@H](CCCN=C(N)N)C(=O)N[C@@H](Cc3c[nH]cn3)C(=O)N[C@H](C(=O)N[C@@H](CCCN=C(N)N)C(=O)N3CCC[C@H]3C(=O)N[C@@H](CCCN=C(N)N)C(=O)N[C@H](C(=O)N[C@H](C(=O)N[C@@H](CCCN=C(N)N)C(=O)N[C@@H](CCSC)C(=O)N[C@@H](CC(=O)O)C(=O)N[C@H](C(=O)O)C(C)C)[C@@H](C)O)C(C)C)C(C)C)C(C)C)C2=O)[C@H](O)[C@H](C)O1 (stereo partly specified) (H-C(X4)VKRGLKLRHVRPRVTRMDV-OH)	–	500 µM	108 µM	–	–
COc1cccc2c1C(=O)c1c(O)c3c(c(O)c1C2=O)C[C@@](O)(C(=O)COC(=O)CCCN1C(=O)CC(SC[C@H](N)C(=O)N[C@H](C(=O)N[C@@H](CCCCN)C(=O)N[C@@H](CCCN=C(N)N)C(=O)NCC(=O)N[C@@H](CC(C)C)C(=O)N[C@@H](CCCCN)C(=O)N[C@@H](CC(C)C)C(=O)N[C@@H](CCCN=C(N)N)C(=O)N[C@@H](Cc2c[nH]cn2)C(=O)N[C@H](C(=O)N[C@@H](CCCN=C(N)N)C(=O)N2CCC[C@H]2C(=O)N[C@@H](CCCN=C(N)N)C(=O)N[C@H](C(=O)N[C@H](C(=O)N[C@@H](CCCN=C(N)N)C(=O)N[C@@H](CCSC)C(=O)N[C@@H](CC(=O)O)C(=O)N[C@H](C(=O)O)C(C)C)[C@@H](C)O)C(C)C)C(C)C)C(C)C)C1=O)C[C@@H]3O[C@H]1C[C@H](N)[C@H](O)[C@H](C)O1.O=C(O)C(F)(F)F (stereo partly specified) (H-C(X1)VKRGLKLRHVRPRVTRMDV-OH)	29.5%	–	–	–	Activity [13]: 27.6%; Activity [14]: 43.4%; Activity [15]: 16.4%
COc1cccc2c1C(=O)c1c(O)c3c(c(O)c1C2=O)C[C@@](O)(C(=O)COC(=O)CCCN1C(=O)CC(SCC(N)C(=O)N[C@@H](CO)C(=O)N[C@@H](CCCN=C(N)N)C(=O)N[C@@H](CCCN=C(N)N)C(=O)N[C@@H](C)C(=O)N[C@@H](CCCN=C(N)N)C(=O)N[C@@H](CCCN=C(N)N)C(=O)N[C@@H](CO)C(=O)N2CCC[C@H]2C(=O)N[C@@H](CCCN=C(N)N)C(=O)N[C@@H](Cc2c[nH]cn2)C(=O)N[C@@H](CC(C)C)C(=O)NCC(=O)N[C@@H](CO)C(=O)NCC(=O)N[C@@H](CS)C(=O)O)C1=O)C[C@@H]3O[C@H]1C[C@H](N)[C@H](O)[C@H](C)O1.O=C(O)C(F)(F)F (stereo partly specified) (H-[ξC](X1)SRRARRSPRHLGSGC-OH)	39%	532 µM	9 µM	2 µM	–
H-CVKRGLKLRHVRPRVTRMDV-OH	–	> 1000 µM	–	> 1000 µM	–
COc1cccc2c1C(=O)c1c(O)c3c(c(O)c1C2=O)C[C@@](O)(C(=O)COC(=O)CCCN1C(=O)CC(SCC(N)C(=O)NCC(=O)N[C@@H](CCCCN)C(=O)N[C@@H](CCCN=C(N)N)C(=O)N[C@@H](CCCCN)C(=O)N[C@@H](CCCCN)C(=O)N[C@@H](CCCCN)C(=O)NCC(=O)N[C@@H](CCCCN)C(=O)N[C@@H](CC(C)C)C(=O)NCC(=O)N[C@@H](CCCCN)C(=O)N[C@@H](CCCCN)C(=O)N[C@@H](CCCN=C(N)N)C(=O)N2CCC[C@H]2C(=O)N[C@@H](CCCN=C(N)N)C(=O)N[C@@H](CO)C(=O)N[C@@H](CCCN=C(N)N)C(=O)N[C@@H](CS)C(=O)O)C1=O)C[C@@H]3O[C@H]1C[C@H](N)[C@H](O)[C@H](C)O1.O=C(O)C(F)(F)F (stereo partly specified) (H-[ξC](X1)GKRKKKGKLGKKRPRSRC-OH)	34.1%	> 1000 µM	10 µM	5 µM	–
